This passage reports IC50 results from patent US5478856A, “Styrene derivatives and salts thereof” (Taiho Pharmaceutical Co., Ltd., priority 1992, dated 1995).

In one test the target is T1, 5-Lipoxygenase (Cavia porcellus, UniProt A0A286X958).
T1 construct: the polymorphonuclear leucocytes were collected and the cytosol fraction was obtained as an enzyme source; endogenous in cells; host or cells: guinea pig peritoneal polymorphonuclear leucocytes (casein-elicited), cytosol fraction
T1 sequence (A0A286X958 1-674): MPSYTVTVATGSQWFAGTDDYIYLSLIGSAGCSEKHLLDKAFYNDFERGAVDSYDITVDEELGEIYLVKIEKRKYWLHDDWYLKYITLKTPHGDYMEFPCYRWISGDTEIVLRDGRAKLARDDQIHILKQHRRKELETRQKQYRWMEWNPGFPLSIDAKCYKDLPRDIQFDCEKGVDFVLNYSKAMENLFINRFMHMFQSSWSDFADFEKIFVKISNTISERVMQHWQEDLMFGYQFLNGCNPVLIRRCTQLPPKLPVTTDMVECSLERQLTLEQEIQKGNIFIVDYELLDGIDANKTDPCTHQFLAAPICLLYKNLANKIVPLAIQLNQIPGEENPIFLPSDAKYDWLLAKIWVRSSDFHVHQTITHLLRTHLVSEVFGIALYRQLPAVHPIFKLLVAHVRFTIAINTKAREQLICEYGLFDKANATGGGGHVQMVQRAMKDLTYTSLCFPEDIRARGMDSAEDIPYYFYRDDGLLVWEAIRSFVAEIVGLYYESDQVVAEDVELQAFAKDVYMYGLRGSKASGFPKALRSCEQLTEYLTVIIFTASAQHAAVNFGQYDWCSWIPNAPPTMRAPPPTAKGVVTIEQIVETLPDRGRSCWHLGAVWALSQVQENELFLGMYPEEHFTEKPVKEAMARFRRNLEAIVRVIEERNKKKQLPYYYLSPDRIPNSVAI
Put plainly: 5-Lipoxygenase inhibiting activity (5-hydroxyeicosatetraenoic acid formation from 14C-arachidonic acid, cytosol fraction of polymorphonuclear leucocytes). In kind it is biochemical. The conditions noted are these: guinea pig polymorphonuclear leucocyte cytosol, 5-hydroxyeicosatetraenoic acid radioactivity. Here is the method: (2) 5-Lipoxygenase inhibiting activity
This assay was carried out by the method described in Kenkichi Ochi et al., J. Biol. Chem., 258, 5754-5758 (1983).
Casein was injected into the abdominal cavity of a guinea pig, and the polymorphonuclear leucocytes were collected and the cytosol fraction was obtained as an enzyme source. ^14 C-arachidonic acid was reacted with the enzyme and the test drug at various concentrations over a predetermined period of time. The obtained 5-hydroxyeicosatetraenoic acid was separated by thin layer chromatography and the radioactivity was determined. The IC50 values were calculated by the comparison with the radioactivity of the control.
For the molecule `COc1ccc(-c2noc(CCNC(=O)C(C#N)=Cc3cc(OC)c(O)c(OC)c3)c2-c2ccc(OC)cc2)cc1` [Compound 2], the IC50 amounted to 650 nM.
Same read-out and setting: with `COc1ccc(-c2noc(C(C#N)=Cc3cc(OC)c(O)c(OC)c3)c2-c2ccc(OC)cc2)cc1` [Compound 20] the figure was 240 nM; with `COc1ccc(-c2noc(CCNC(=O)C(=Cc3cc(OC)c(O)c(OC)c3)C(=O)N(C)C)c2-c2ccc(OC)cc2)cc1` [Compound 8], 260 nM.
Take `COc1ccc(-c2noc(CCNC(=O)C(C#N)=CC=Cc3cc(OC)c(O)c(OC)c3)c2-c2ccc(OC)cc2)cc1` [Compound 11]: the IC50 amounted to 240 nM.
On the same count and under the same terms, under `COc1ccc(-c2noc(CCNC(=O)C(=Cc3cc(OC)c(O)c(OC)c3)c3cccs3)c2-c2ccc(OC)cc2)cc1` [Compound 7] stands 80 nM; under `COc1ccc(-c2noc(CCN(CC(=O)O)C(=O)C=CC=Cc3cc(OC)c(O)c(OC)c3)c2-c2ccc(OC)cc2)cc1` [Compound 23], 90 nM; under `CCOC(=O)C(=Cc1cc(OC)c(O)c(OC)c1)C(=O)NCCc1onc(-c2ccc(OC)cc2)c1-c1ccc(OC)cc1` [Compound 1], 1170 nM.
For the molecule `COCC(=Cc1cc(OC)c(O)c(OC)c1)C(=O)NCCc1onc(-c2ccc(OC)cc2)c1-c1ccc(OC)cc1` [Compound 3], the concentration for half-maximal inhibition (IC50) worked out at 300 nM.
The same measure, in the same setting: with `COc1ccc(-c2noc(CCNC(=O)C(=Cc3cc(OC)c(O)c(OC)c3)c3ccccn3)c2-c2ccc(OC)cc2)cc1` [Compound 6] the figure was 620 nM.
As for `CCCC(=Cc1cc(OC)c(O)c(OC)c1)C(=O)NCCc1onc(-c2ccc(OC)cc2)c1-c1ccc(OC)cc1` [Compound 4], the IC50 was determined as 180 nM.
On to `COc1ccc(-c2noc(CCNC(=O)C(=Cc3cc(OC)c(O)c(OC)c3)NC(C)=O)c2-c2ccc(OC)cc2)cc1` [Compound 18], for which the IC50 worked out at 180 nM.

The next test addresses Cyclooxygenase. Put plainly: Cyclooxygenase inhibiting effect (prostaglandin E2 formation from 14C-arachidonic acid, seminal vesicular gland microsomes). In kind it is biochemical. The settings on record: seminal vasicular gland microsomes, prostaglandin E2 radioactivity. The method, then:
(1) Cyclooxygenase inhibiting effect
This assay was carried out by the method described in Russell J. Taylor et al., Biochem. Pharmacol., 25, 2479-2484 (1976).
^14 C-arachidonic acid was reacted with seminal vasicular gland microsomes and the test drugs at various concentrations over a predetermined period of time and the obtained prostaglandin E2 was separated by thin layer chromatography. The radioactivity of prostaglandin E2 was determined by liquid scintillation counter. The IC50 values were calculated by the comparison with the radioactivity of the control.
Regarding `COc1ccc(-c2noc(CCNC(=O)C(C#N)=Cc3cc(OC)c(O)c(OC)c3)c2-c2ccc(OC)cc2)cc1` [Compound 2], the IC50 stood at 4050 nM.
Turning to `COc1ccc(-c2noc(C(C#N)=Cc3cc(OC)c(O)c(OC)c3)c2-c2ccc(OC)cc2)cc1` [Compound 20], the 50% inhibitory concentration (IC50) stood at 1850 nM.
Still for that read-out and setting: under `COc1ccc(-c2noc(CCNC(=O)C(=Cc3cc(OC)c(O)c(OC)c3)C(=O)N(C)C)c2-c2ccc(OC)cc2)cc1` [Compound 8] stands 4760 nM; under `COc1ccc(-c2noc(CCNC(=O)C(C#N)=CC=Cc3cc(OC)c(O)c(OC)c3)c2-c2ccc(OC)cc2)cc1` [Compound 11], 680 nM.
For the molecule `COc1ccc(-c2noc(CCNC(=O)C(=Cc3cc(OC)c(O)c(OC)c3)c3cccs3)c2-c2ccc(OC)cc2)cc1` [Compound 7], the IC50 was 170 nM.
Still for that read-out and setting: under `COc1ccc(-c2noc(CCN(CC(=O)O)C(=O)C=CC=Cc3cc(OC)c(O)c(OC)c3)c2-c2ccc(OC)cc2)cc1` [Compound 23] stands 2940 nM.
Still for that read-out and setting: under `CCOC(=O)C(=Cc1cc(OC)c(O)c(OC)c1)C(=O)NCCc1onc(-c2ccc(OC)cc2)c1-c1ccc(OC)cc1` [Compound 1] stands 2870 nM; under `COCC(=Cc1cc(OC)c(O)c(OC)c1)C(=O)NCCc1onc(-c2ccc(OC)cc2)c1-c1ccc(OC)cc1` [Compound 3], 1200 nM; under `COc1ccc(-c2noc(CCNC(=O)C(=Cc3cc(OC)c(O)c(OC)c3)c3ccccn3)c2-c2ccc(OC)cc2)cc1` [Compound 6], 1380 nM.
The same measure, in the same setting: under `CCCC(=Cc1cc(OC)c(O)c(OC)c1)C(=O)NCCc1onc(-c2ccc(OC)cc2)c1-c1ccc(OC)cc1` [Compound 4] stands 950 nM.
As for `COc1ccc(-c2noc(CCNC(=O)C(=Cc3cc(OC)c(O)c(OC)c3)NC(C)=O)c2-c2ccc(OC)cc2)cc1` [Compound 18], the half-maximal inhibitory concentration (IC50) was 110 nM.
